# Source: ChEMBL document CHEMBL1127284, “The synthesis of 2,3-dihydro-4(1H)-quinazolinone angiotensin II receptor antagonists” (Bioorg Med Chem Lett, 1994)
# Molecular target: T1, Angiotensin II receptor (Rattus norvegicus, UniProt P29089+P25095+P35351)
# T1 sequence (P29089 whole entry): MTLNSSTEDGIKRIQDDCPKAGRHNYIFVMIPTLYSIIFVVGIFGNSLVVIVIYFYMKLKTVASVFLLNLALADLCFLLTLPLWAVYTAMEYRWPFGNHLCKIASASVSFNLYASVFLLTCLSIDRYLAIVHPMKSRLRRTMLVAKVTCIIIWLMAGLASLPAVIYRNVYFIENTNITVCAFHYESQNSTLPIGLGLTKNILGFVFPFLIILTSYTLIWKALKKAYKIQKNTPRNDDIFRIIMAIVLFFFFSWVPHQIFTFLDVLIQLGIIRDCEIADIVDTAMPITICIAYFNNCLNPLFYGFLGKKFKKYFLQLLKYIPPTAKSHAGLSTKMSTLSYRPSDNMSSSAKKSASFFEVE
# T1 sequence (P25095 whole entry): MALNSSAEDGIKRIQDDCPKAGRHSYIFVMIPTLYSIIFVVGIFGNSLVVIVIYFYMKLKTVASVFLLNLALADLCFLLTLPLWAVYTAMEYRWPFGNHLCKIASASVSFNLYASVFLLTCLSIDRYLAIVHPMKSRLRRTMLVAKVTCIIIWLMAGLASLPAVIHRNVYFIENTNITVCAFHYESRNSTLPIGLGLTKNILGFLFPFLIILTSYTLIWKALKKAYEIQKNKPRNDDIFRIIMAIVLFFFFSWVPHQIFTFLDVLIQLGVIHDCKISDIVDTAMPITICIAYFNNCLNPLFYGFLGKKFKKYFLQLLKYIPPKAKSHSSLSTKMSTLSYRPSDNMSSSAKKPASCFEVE
# T1 sequence (P35351 whole entry): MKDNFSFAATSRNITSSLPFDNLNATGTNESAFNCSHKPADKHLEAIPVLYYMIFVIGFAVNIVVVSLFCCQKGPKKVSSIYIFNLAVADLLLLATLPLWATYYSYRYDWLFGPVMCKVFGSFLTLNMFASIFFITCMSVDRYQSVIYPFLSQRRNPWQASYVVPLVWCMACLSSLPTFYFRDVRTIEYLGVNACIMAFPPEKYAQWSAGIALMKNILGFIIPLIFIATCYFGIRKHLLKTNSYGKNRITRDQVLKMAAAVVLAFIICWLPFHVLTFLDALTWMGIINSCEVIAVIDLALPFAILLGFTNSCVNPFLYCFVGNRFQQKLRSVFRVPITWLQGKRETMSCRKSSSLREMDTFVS
# Assay: Concentration required for 50% inhibition of binding against Angiotensin II receptor in the rat adrenal cortex tissue
# Type: tissue-based
# Conditions: not given
row,IC50,SMILES
1,0.65 µM,CCCCC1N(Cc2ccc(-c3ccccc3-c3nn[nH]n3)cc2)C(=O)c2cc(C(C)C)ccc2N1C (stereo not given)
2,0.37 µM,CCCCC1Nc2ccc(CC)cc2C(=O)N1Cc1ccc(-c2ccccc2-c2nn[nH]n2)cc1 (stereo not given)
3,12 µM,CCCC1Nc2ccc(C(C)C)cc2C(=O)N1Cc1ccc(-c2ccccc2-c2nn[nH]n2)cc1 (stereo not given)
4,0.09 µM,CCCCC1Nc2ccc(C(C)C)cc2C(=O)N1Cc1ccc(-c2ccccc2-c2nn[nH]n2)cc1 (stereo not given)
5,3.7 µM,CCCCC1Nc2ccc(Cc3ccccc3)cc2C(=O)N1Cc1ccc(-c2ccccc2-c2nn[nH]n2)cc1 (stereo not given)
6,4.1 µM,CCCCC1Nc2ccc(C(=O)OC)cc2C(=O)N1Cc1ccc(-c2ccccc2-c2nn[nH]n2)cc1 (stereo not given)
7,13 µM,CCCCC1(CCCC)Nc2ccccc2C(=O)N1Cc1ccc(-c2ccccc2-c2nn[nH]n2)cc1
8,7.5 µM,CCCC1N(Cc2ccc(-c3ccccc3-c3nn[nH]n3)cc2)C(=O)c2ccccc2N1CC (stereo not given)
9,1.1 µM,CCCCC1N(Cc2ccc(-c3ccccc3-c3nn[nH]n3)cc2)C(=O)c2ccccc2N1C (stereo not given)
10,0.05 µM,CCCC1N(Cc2ccc(-c3ccccc3-c3nn[nH]n3)cc2)C(=O)c2ccccc2N1C (stereo not given)
11,45 µM,CCC1Nc2ccc(C(C)C)cc2C(=O)N1Cc1ccc(-c2ccccc2-c2nn[nH]n2)cc1 (stereo not given)
12,0.54 µM,CCCC1Nc2ccccc2C(=O)N1Cc1ccc(-c2ccccc2-c2nn[nH]n2)cc1 (stereo not given)
13,90 µM,CC1Nc2ccccc2C(=O)N1Cc1ccc(-c2ccccc2-c2nn[nH]n2)cc1 (stereo not given)
14,100 µM,CCCC1N(Cc2ccc(-c3ccccc3-c3nn[nH]n3)cc2)C(=O)c2ccccc2N1Cc1ccccc1 (stereo not given)
15,2 µM,CCCCC1N(Cc2ccc(-c3ccccc3-c3nn[nH]n3)cc2)C(=O)c2cc(C(C)(C)OC)ccc2N1C (stereo not given)
16,20 µM,CCC1Nc2ccc(C)cc2C(=O)N1Cc1ccc(-c2ccccc2-c2nn[nH]n2)cc1 (stereo not given)
17,14 µM,CCCCC1Nc2ccccc2C(=O)N1Cc1ccc(-c2ccccc2-c2nn[nH]n2)cc1 (stereo not given)
18,27 µM,CCC1Nc2ccccc2C(=O)N1Cc1ccc(-c2ccccc2-c2nn[nH]n2)cc1 (stereo not given)
19,2.7 µM,CCCCC1Nc2ccc(C(C)(C)OC)cc2C(=O)N1Cc1ccc(-c2ccccc2-c2nn[nH]n2)cc1 (stereo not given)

# Same assay, conditions: read-out: IC50
row,IC50,SMILES
1,0.006 µM,CCCCc1nc2ccc(C(C)(C)OC)cc2c(=O)n1Cc1ccc(-c2ccccc2-c2nn[nH]n2)cc1 [CL-329167]
